Measured values as given in ChEMBL document CHEMBL1144455, “A small molecule-kinase interaction map for clinical kinase inhibitors” (Nat Biotechnol, 2005).

Key:
[1] = target: T1, Receptor-type tyrosine-protein kinase FLT3 (Homo sapiens, UniProt P36888)
T1 sequence (P36888 whole entry): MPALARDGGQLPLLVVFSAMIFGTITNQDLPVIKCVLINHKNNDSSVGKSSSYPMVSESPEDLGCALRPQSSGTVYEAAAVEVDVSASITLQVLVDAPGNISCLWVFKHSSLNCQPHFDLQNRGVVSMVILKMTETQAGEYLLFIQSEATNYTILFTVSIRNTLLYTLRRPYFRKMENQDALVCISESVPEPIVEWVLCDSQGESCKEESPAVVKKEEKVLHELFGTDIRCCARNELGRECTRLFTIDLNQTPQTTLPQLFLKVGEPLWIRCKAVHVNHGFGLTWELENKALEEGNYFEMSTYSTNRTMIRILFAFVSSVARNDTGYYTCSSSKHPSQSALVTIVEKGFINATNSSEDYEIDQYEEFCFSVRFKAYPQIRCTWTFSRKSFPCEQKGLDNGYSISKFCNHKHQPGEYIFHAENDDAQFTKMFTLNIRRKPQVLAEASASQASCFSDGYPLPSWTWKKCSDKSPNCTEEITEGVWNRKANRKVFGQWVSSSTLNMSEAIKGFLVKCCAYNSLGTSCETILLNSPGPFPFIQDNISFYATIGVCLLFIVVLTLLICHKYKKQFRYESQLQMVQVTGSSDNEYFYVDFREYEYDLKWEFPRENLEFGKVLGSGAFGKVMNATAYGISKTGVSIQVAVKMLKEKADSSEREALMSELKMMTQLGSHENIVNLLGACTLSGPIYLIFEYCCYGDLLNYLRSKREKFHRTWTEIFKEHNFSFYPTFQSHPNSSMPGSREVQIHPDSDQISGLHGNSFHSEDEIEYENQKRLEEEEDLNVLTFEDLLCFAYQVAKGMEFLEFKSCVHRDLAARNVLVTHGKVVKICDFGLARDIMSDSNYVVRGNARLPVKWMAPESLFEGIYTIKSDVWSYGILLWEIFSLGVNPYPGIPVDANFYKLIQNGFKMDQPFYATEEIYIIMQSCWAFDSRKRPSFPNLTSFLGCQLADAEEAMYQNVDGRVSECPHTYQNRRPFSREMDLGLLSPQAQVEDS

[2] = target: Tyrosine-protein kinase Yes (Homo sapiens, UniProt P07947)
Ephrin type-A receptor 2 = Ephrin type-A receptor 2 (Homo sapiens, UniProt P29317)
[3] = target: T2, Serine/threonine-protein kinase 17B (Homo sapiens, UniProt O94768)
T2 sequence (O94768 whole entry): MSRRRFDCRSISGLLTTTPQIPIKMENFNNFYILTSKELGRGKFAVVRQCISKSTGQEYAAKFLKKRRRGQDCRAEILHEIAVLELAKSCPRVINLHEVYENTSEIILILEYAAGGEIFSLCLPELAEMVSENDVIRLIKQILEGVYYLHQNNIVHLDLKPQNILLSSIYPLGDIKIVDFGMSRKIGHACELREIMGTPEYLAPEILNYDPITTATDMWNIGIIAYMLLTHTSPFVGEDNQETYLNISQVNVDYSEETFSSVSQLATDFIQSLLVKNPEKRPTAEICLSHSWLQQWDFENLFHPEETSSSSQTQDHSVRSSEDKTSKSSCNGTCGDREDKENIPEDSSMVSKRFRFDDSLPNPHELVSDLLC

[4] = target: Vascular endothelial growth factor receptor 3 (Homo sapiens, UniProt P35916)
Focal adhesion kinase 1 = Focal adhesion kinase 1 (Homo sapiens, UniProt Q05397)
[5] = target: Tyrosine-protein kinase CSK (Homo sapiens, UniProt P41240)
[6] = target: Platelet-derived growth factor receptor beta (Homo sapiens, UniProt P09619)
[7] = target: Calcium/calmodulin-dependent protein kinase type II subunit gamma (Homo sapiens, UniProt Q13555)
[8] = target: Serine/threonine-protein kinase PAK 1 (Homo sapiens, UniProt Q13153)
[9] = target: T3, Membrane-associated tyrosine- and threonine-specific cdc2-inhibitory kinase (Homo sapiens, UniProt Q99640)
T3 sequence (Q99640 whole entry): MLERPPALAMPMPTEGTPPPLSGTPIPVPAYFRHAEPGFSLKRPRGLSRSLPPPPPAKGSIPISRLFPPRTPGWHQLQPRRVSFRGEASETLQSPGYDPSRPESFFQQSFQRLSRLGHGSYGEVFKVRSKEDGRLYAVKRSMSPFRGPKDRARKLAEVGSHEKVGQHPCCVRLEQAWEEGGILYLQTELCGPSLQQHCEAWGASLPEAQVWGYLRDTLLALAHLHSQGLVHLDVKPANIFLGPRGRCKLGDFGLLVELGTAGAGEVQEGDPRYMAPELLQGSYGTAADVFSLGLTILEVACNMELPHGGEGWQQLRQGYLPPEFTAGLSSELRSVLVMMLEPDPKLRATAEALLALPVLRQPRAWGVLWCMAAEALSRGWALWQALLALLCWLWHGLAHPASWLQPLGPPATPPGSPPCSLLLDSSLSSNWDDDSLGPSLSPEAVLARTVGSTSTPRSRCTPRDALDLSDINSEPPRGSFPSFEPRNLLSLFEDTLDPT

[10] = target: Serine/threonine-protein kinase 10 (Homo sapiens, UniProt O94804)
[11] = target: AP2-associated protein kinase 1 (Homo sapiens, UniProt Q2M2I8)
[12] = target: Receptor-interacting serine/threonine-protein kinase 2 (Homo sapiens, UniProt O43353)
[13] = target: Fibroblast growth factor receptor 2 (Homo sapiens, UniProt P21802)

Measured: Kd

Chain of Tyrosine-protein kinase Yes (P07947 whole entry): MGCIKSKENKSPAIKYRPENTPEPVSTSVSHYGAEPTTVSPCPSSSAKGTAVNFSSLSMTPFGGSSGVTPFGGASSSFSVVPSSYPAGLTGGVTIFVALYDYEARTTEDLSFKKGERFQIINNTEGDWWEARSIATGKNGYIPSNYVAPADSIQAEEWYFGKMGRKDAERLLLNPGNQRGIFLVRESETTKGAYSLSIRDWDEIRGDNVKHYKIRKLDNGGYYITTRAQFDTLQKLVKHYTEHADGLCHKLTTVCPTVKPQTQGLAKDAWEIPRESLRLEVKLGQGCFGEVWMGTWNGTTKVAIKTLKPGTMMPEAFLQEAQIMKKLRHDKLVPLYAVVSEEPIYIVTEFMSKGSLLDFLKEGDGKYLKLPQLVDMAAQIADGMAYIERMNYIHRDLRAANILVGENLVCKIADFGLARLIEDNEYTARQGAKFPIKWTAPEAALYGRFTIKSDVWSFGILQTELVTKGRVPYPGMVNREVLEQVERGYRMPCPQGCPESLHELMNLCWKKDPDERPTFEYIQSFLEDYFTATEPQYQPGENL
Chain of Tyrosine-protein kinase CSK (P41240 whole entry): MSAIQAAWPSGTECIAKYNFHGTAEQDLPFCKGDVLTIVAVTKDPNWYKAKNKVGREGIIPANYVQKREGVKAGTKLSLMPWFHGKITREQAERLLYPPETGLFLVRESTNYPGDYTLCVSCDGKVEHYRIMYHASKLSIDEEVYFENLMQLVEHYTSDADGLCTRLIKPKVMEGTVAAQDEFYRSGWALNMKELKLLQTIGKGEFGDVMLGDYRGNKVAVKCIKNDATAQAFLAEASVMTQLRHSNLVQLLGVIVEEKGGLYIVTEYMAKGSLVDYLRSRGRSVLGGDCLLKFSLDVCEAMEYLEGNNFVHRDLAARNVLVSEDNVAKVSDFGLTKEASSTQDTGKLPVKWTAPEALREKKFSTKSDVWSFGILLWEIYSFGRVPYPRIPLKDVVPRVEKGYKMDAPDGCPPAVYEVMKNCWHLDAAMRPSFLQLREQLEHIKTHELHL
Chain of Vascular endothelial growth factor receptor 3 (P35916 whole entry): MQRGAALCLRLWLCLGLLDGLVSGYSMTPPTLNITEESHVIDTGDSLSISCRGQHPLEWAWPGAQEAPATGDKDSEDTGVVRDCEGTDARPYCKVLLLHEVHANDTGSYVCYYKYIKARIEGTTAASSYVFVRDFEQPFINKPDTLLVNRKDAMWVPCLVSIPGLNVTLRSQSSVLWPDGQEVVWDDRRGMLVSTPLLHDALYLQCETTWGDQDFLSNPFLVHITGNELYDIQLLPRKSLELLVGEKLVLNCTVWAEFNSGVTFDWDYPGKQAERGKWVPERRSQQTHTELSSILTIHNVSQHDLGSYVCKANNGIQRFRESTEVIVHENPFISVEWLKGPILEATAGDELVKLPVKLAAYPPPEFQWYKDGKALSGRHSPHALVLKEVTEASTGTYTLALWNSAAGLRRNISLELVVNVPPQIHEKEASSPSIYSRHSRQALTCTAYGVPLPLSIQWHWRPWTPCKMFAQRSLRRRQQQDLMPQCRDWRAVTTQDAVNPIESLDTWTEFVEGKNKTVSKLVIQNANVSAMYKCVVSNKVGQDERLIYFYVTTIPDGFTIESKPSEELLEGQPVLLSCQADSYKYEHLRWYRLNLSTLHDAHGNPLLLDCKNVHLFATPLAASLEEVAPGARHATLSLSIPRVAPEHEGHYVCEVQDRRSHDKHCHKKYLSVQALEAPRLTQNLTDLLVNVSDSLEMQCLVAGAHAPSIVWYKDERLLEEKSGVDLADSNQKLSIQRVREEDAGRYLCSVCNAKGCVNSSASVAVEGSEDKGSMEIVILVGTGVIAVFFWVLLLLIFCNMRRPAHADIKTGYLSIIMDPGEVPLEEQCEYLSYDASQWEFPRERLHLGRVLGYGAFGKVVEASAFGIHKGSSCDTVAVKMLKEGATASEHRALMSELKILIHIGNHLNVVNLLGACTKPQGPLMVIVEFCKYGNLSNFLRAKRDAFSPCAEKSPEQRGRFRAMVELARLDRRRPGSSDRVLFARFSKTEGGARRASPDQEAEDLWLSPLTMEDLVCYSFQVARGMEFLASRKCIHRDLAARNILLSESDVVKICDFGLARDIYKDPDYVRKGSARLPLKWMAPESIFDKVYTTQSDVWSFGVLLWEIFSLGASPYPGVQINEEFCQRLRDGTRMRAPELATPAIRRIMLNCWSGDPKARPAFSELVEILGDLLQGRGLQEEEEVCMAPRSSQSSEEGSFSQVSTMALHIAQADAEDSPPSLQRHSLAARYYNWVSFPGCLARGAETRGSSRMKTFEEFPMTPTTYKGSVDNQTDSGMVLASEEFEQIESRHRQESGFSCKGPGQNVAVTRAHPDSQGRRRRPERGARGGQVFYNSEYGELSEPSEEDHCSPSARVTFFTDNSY
Chain of Serine/threonine-protein kinase 10 (O94804 whole entry): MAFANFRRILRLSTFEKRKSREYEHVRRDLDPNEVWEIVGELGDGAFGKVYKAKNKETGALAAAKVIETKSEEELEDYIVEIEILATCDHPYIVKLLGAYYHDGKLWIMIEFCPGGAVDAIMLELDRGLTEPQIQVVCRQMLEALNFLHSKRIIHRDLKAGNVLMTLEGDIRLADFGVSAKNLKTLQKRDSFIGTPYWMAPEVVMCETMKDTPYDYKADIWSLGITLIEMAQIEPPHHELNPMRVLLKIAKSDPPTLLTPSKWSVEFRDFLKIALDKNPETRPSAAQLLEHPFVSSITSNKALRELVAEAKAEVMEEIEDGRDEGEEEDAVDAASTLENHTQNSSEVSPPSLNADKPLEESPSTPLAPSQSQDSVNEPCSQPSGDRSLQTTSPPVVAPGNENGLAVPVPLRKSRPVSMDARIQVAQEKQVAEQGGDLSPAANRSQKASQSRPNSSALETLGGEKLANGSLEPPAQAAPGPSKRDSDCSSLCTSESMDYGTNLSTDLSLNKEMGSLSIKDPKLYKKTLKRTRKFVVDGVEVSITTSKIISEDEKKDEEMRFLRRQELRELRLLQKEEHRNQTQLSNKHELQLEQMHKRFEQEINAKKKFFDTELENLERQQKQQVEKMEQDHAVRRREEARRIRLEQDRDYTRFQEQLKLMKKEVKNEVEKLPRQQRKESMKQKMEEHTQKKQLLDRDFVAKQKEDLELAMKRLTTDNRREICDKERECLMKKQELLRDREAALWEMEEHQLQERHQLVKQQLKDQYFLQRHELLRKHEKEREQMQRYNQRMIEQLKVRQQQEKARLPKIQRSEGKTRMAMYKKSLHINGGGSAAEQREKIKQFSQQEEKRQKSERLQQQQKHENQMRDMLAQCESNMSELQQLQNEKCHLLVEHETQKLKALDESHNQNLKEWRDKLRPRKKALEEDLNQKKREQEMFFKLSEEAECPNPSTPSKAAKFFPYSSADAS
Chain of Fibroblast growth factor receptor 2 (P21802 whole entry): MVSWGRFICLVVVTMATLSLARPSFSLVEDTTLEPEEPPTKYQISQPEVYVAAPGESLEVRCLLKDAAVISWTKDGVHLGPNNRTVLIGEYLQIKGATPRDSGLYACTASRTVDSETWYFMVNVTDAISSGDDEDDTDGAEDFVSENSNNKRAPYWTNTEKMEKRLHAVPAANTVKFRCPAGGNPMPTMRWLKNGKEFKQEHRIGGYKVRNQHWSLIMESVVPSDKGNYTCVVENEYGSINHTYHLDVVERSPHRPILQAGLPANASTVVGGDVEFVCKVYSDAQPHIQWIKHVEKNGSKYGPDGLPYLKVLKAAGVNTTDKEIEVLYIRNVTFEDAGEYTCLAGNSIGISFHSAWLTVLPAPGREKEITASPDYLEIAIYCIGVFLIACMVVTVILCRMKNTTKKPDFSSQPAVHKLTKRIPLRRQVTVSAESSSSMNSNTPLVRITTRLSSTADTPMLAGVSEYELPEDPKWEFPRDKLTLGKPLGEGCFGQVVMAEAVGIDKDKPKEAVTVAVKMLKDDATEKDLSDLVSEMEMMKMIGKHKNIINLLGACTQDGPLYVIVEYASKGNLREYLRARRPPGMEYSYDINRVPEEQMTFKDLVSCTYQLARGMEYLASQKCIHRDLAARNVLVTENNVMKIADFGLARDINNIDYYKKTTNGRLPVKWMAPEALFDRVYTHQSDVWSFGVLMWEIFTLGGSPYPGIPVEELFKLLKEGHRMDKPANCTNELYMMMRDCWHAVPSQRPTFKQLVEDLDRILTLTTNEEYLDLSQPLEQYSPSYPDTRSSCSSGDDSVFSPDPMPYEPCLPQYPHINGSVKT
Chain of Serine/threonine-protein kinase PAK 1 (Q13153 whole entry): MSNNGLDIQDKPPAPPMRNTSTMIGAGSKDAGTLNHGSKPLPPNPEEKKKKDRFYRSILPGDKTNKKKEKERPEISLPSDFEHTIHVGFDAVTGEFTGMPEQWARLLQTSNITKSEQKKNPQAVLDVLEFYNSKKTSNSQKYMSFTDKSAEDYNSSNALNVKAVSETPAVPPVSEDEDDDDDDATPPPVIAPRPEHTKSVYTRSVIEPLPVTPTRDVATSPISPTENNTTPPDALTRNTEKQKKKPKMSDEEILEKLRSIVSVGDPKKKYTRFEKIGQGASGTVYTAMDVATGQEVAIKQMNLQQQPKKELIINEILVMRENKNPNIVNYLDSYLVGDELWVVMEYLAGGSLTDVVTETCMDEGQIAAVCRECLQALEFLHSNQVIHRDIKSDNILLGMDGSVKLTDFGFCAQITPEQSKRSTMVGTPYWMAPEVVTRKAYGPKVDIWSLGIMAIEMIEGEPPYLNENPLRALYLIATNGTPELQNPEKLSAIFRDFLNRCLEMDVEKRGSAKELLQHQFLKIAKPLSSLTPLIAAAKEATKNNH

C#Cc1cccc(Nc2ncnc3cc(OCCOC)c(OCCOC)cc23)c1 [ERLOTINIB]
not listed: [10] | [11] | [12] | [13]
Not Active: all other assays above

Cc1ccc(NC(=O)c2ccc(CN3CCN(C)CC3)cc2)cc1Nc1nccc(-c2cccnc2)n1 [IMATINIB]
not listed: [6]
Not Active: all other assays above

O=c1ncn2nc(Sc3ccc(F)cc3F)ccc2c1-c1c(Cl)cccc1Cl [NEFLAMAPIMOD]
not listed: [2] | Ephrin type-A receptor 2 | [6]
Not Active: all other assays above

CCOc1cc2ncc(C#N)c(Nc3ccc(F)c(Cl)c3)c2cc1NC(=O)/C=C/CN(C)C [PELITINIB]
Not Active: [1] | Ephrin type-A receptor 2 | [12] | [4] | [13] | [6] | [7]

Oc1ccc(-c2nc(-c3ccc(F)cc3)c(-c3ccncc3)[nH]2)cc1 [SB-202190]
not listed: [12]
Not Active: all other assays above

C[S+]([O-])c1ccc(-c2nc(-c3ccc(F)cc3)c(-c3ccncc3)[nH]2)cc1 (centres undefined) [SB-203580]
not listed: [12]
Not Active: all other assays above

CC[C@H](CO)Nc1nc(NCc2ccccc2)c2ncn(C(C)C)c2n1 [SELICICLIB]
Not Active: all assays above

Oc1c2ccccc2c2c3c(cccc13)N=N2 [SP-600125]
not listed: [11]
Not Active: all other assays above

COc1cc2c(N3CCN(C(=O)Nc4ccc(OC(C)C)cc4)CC3)ncnc2cc1OCCCN1CCCCC1 [TANDUTINIB]
not listed: [1] | [6]
Not Active: all other assays above
